Test results taken from patent publication US9187406B2 (The Research Foundation of State University of New York, priority 2009, dated 2015).
Read-outs that look alike come from different tables or passages of the source.

How the values were obtained:
[1] = test system: alveolar (periodontal) bone loss in diabetic rats; test: Diabetic rat model, 3-week oral treatment: alveolar bone loss, morphometric; type: in vivo; conditions: 3 weeks
Protocol: (§1) At the end of the treatment protocol, the rats were sacrificed, blood samples were collected, and whole skin (except over limbs) and gingiva were dissected (the skin, because of ample quantities of tissue were analyzed for each rat separately; the gingiva, because of the tiny amounts that could be harvested per rat, were pooled for each experimental group, as prescribed previously for tetracycline studies (30). In addition, the jaw bones were collected, defleshed, and bone loss around the teeth analyzed morphometrically as described previously (42, 43).
Alveolar bone loss (the signature pathologic event in inflammatory periodontal disease) was assessed in the defleshed jaws of the compound 1-treated (TX) and untreated rats.

MCP-1, TNFα, VEGF = test: Cytokine and growth factor levels in LPS-challenged human monocytes, Luminex multiplex; type: cell-based; conditions: 2 μM, FIG. 2
Protocol: The cytokine levels were measured by Luminex multiplex, a method that allows the simultaneous measurement of different biological markers.

human monocytes [2] = test: Cytotoxicity in human monocytes (MTS); type: cell-based
Protocol: Briefly, human peripheral blood monocytes (HMs) were isolated from a leukocyte concentrate by density gradient centrifugation (Lymphoprep) and the isolated HMs cultured (2 h, 37° C.) to remove non-adherent cells. The adherent HMs were cultured for 18 h (1×10^6 cells/well, 24-well plates)±endotoxin (LPS)±different compounds dissolved in DMSO (the final concentration of DMSO in the RPMI serum-free culture media with Pen./Strep. antibiotics was no greater than 0.5%). After incubation, the proinflammatory cytokines, TNFα, IL-1β, MCP-1 and IL-6 were measured in the conditioned media by ELISA and cytotoxicity was assessed by measuring the absorbance (490 nm) of formazan produced by reduction of MTS. The HMs alone ±0.1-0.5% DMSO produced minimal levels of these pro-inflammatory cytokines. However, addition of 100 ng/ml or 10 μg/ml of LPS both dramatically stimulated cytokine production.

[3] = target: T1, MMP-9 (92 kDa gelatinase) (Rattus norvegicus (Rat), UniProt P50282); test: Diabetic rat model, 3-week oral treatment: gingival MMP-9 by gelatin zymography; type: in vivo; conditions: diabetic rats, 100 mg/kg and 500 mg/kg oral daily, 3 weeks
Protocol: as §1
(§2) This appearance of MMP-9 only in the gingiva (FIG. 10), but not the skin (FIG. 12), of the diabetic rats is likely the result of the oral bacteria inducing inflammation in the gingiva of these immune-suppressed UD rats, whereas the skin is not exposed to this onslaught of bacteria particularly the anaerobic gram-negative bacteria in the mouth that cause periodontal and gingival inflammation.

p38 MAP kinase = p38 MAP kinase activation; type: cell-based, human; conditions: preliminary studies
diabetic rats = test: Diabetic rat model, 1-week oral treatment: diabetic adverse events; type: in vivo; conditions: 100 mg/kg oral once/day for 7 days, n = 6
[4] = target: MMP-9 (human leukocyte gelatinase) (Homo sapiens (Human), UniProt P14780); test: MMP-9 inhibition in vitro, octapeptide/HPLC; type: biochemical
From the text: In contrast all three chemically-modified curcumins at 100 μm final concentration inhibited gelatinase activity by 68-100% (FIG. 6 and Table 6).

[5] = Extractability/recovery from human serum by HPLC; conditions: human
Protocol: Detection of compounds & extractability/recovery from human serum (for future use to determine in vivo pharmacokinetics) was achieved using HPLC. The HPLC detection method is briefly described herein. 50 μl of buffer or human serum containing 166.67 μM, 16.67 μM and 1.67 μM of the compounds were incubated with 100 μl pre-cooled (−10° C.) extraction solvent containing CAN-MeOH-0.5M oxalic acid at a ratio of 60:30:10. The mixture was vortexed and centrifuged at 10,000 rpm for 10 min. The supernatant was then aliquoted and injected into an HPLC for analysis. Stock solutions of the compounds were made 100× in DMSO, then further diluted with buffer or serum.

human monocytes [6] = test: Cytotoxicity in human monocytes (MTS); type: cell-based; remark: listed apart in the source
[7] = target: T1, MMP-9 (92 kDa gelatinase); test: Diabetic rat model, 1-week oral treatment: plasma MMP-9 by gelatin zymography; type: in vivo; conditions: diabetic rats, 100 mg/kg oral once/day for 7 days
[8] = test system: neonatal rat ventricular myocytes; test: Hydrogen peroxide induced LDH release; type: cell-based; conditions: 10 μM, H2O2 100 μM
Protocol: (§3) Test compounds and concentrations (MMP inhibitors, MMPi): • 1. GM-6001: 10 μM • 2. ONO-4817: 10 μM • 3.
Neonatal rat ventricular myocytes, serum starved for 24 h, were treated with the inhibitors 1 h prior to the addition of 100 μM of hydrogen peroxide (Sigma). LDH release in the conditioned media was quantified using CytoTox-ONE Homogeneous Membrane Integrity Assay reagent (Promega) at the indicated time points.

purified human PMN MMP-8 = purified human PMN MMP-8 (Homo sapiens (Human), UniProt P22894); test: MMP-8 inhibition, synthetic octapeptide substrate, tripeptide product by HPLC; type: biochemical
IL-1β = test: Diabetic rat model, 3-week oral treatment: gingival IL-1β by ELISA; type: in vivo; conditions: 3 weeks
Protocol: as §1

[9] = Diabetic rat model, 1-week oral treatment: serum glucose; type: in vivo; conditions: diabetic rats, 100 mg/kg oral once/day for 7 days
From the text: The purpose of the following was to establish an in vivo model of excessive collagen degradation to be used to test efficacy of the compounds of the subject invention. Male Sprague-Dawley rats (typically 300-400 gms of body weight), specific viral antibody free, were ordered from Charles River. Following general anesthesia via isoflurane anesthetic inhalation, diabetes was induced by an I.V. administration of streptozotocin (STZ) (50* mg/kg body weight) (Sigma Chemical Co., St Louis, Mo., USA) diluted in 0.9% citrated saline (pH 4.5), after 12 hours of fasting. After the streptozotocin injection, the animals were given free access to water and food. […] In this test, the test-paper color changes to dark brown which indicates glycosuria.
The latter assays were carried out using Western blot analysis with monoclonal antibodies to MMP-8.

[10] = Solubility in aqueous solutions; type: physicochemical
[11] = target: chromatographically-purified MMP-2 (Homo sapiens (Human), UniProt P08253); test: MMP-2 inhibition in vitro, octapeptide/HPLC; type: biochemical
MMP-2 (gelatinase A) = MMP-2 (gelatinase A) (Rattus norvegicus (Rat), UniProt P33436); test: Diabetic rat model, 3-week oral treatment: gingival MMP-2 by gelatin zymography; type: in vivo; conditions: diabetic rats, oral daily, 3 weeks
Protocol: as §1, §2

[12] = target: MMP-2 (72 kDa gelatinase) (Rattus norvegicus (Rat), UniProt P33436); test: Diabetic rat model, 1-week oral treatment: plasma MMP-2 by gelatin zymography; type: in vivo; conditions: diabetic rats, 100 mg/kg oral once/day for 7 days
MMP-2 = MMP-2 (Rattus norvegicus (Rat), UniProt P33436); test: Diabetic rat model, 3-week oral treatment: skin MMP-2 by ELISA; type: in vivo; conditions: both low and high doses, 3 weeks
Protocol: as §1

[13] = test system: caspase-3 activity in neonatal rat ventricular myocytes; test: Doxorubicin mediated caspase-3 activity; type: cell-based; conditions: 10 μM, doxorubicin 500 nM, 6 h and 24 h
Protocol: as §3
Neonatal rat ventricular myocytes, serum starved for 24 h, were treated with the inhibitors 1 h prior to the addition of 500 nM of doxorubicin (Sigma). At the indicated time points cells were washed with ice-cold phosphate buffered saline and lysed using RIPA buffer (Pierce) containing protease and phosphatase inhibitors (Sigma). Caspase-3 activity in the cell lysates was measured by incubation with 7-amino-4-trifluoromethyl coumarin (Enzo).

[14] = target: MMP-9 generated by PC-3 human prostate cancer cells (Homo sapiens (Human), UniProt P14780); test: MMP-9 in conditioned media of PC-3 cells, gelatin zymography and Western blot; type: cell-based; conditions: 10 μM and 20 μM, 48 hr, serum-free media
Protocol: Compound 1 was evaluated in a cell culture model of cancer. […] After the incubation, aliquots of the conditioned media were assayed for MMP-9 (gelatinase B) by either of two techniques, gelatin zymography (in the presence of 2 or 10 mMCa^++) and Western blot (both assays used purified MMP-9, 92 kDa gelatinase, as a standard).

[15] = Diabetic rat model, 3-week oral treatment: blood glucose and hemoglobin A1c; type: in vivo; conditions: diabetic rats, 100 mg/kg and 500 mg/kg oral daily, 3 weeks
Protocol: as §1

purified human PMN MMP-8, sequence (P22894 101-467): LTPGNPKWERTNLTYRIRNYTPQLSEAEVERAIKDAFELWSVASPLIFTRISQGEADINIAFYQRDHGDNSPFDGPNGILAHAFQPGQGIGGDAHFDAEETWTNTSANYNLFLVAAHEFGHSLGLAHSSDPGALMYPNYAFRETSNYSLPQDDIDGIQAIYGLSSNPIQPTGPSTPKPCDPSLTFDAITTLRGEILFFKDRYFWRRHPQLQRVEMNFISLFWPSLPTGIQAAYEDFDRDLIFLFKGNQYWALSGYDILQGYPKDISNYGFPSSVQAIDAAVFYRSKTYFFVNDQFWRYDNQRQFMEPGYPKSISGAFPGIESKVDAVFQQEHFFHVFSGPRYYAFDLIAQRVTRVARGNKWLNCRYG
chromatographically-purified MMP-2, sequence (P08253 110-660): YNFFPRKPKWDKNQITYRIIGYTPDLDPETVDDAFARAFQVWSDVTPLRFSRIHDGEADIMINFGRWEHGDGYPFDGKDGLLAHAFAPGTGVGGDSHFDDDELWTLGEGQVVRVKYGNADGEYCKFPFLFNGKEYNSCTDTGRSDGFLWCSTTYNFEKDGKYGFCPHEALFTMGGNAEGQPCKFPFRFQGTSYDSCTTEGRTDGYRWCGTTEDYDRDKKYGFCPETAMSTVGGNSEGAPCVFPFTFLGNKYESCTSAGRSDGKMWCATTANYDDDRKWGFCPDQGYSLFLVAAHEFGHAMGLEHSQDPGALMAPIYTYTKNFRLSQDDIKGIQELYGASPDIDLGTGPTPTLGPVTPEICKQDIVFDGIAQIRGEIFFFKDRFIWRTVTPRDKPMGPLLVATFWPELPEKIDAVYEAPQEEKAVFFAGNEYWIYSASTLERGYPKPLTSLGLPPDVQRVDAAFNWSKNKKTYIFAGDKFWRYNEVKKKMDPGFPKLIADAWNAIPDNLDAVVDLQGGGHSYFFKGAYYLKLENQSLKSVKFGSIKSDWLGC
MMP-9 (human leukocyte gelatinase), sequence (P14780 94-707): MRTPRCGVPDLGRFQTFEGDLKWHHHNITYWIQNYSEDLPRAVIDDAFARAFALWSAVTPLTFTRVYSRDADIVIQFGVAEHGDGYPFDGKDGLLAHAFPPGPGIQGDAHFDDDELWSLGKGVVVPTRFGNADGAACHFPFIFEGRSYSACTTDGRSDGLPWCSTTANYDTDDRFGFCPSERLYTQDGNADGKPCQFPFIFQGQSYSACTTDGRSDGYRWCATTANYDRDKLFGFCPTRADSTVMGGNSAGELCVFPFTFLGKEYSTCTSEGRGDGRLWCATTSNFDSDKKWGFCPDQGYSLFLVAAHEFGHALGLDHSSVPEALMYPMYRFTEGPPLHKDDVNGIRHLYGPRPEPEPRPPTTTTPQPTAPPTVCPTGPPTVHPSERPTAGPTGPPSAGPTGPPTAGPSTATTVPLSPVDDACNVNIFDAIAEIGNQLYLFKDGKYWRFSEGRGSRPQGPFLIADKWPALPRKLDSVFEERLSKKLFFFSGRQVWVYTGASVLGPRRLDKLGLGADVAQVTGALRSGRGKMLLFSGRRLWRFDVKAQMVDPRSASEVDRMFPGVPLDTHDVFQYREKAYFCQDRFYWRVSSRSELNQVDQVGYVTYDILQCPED

MMP-9 level in gingiva [3]: reduced MMP-9 to the undetectable levels
Effect on p38 MAP kinase activation (p38 MAP kinase): little/no effect
IC50 [4]: 16 µM
Recovery from human serum [5]: 76-80%
IC50 (purified human PMN MMP-8; Example 7 experiment, 1 mM Ca++, 37° C., read-out: IC50, human neutrophil collagenase (MMP-8)): 10 µM
IC50 (purified human PMN MMP-8; Table 1 experiments, read-out: IC50 against purified hMMP-8): 35 µM
Maximum Inhibition @ 100 μM, MMP-2 ([11]; 100 μM): 78%
IC50 ([11]; read-out: IC50 MMP-2): 48 µM
Reduction of elevated MMP-2 level in skin (ELISA) (MMP-2): 28%
Structure (SMILES): COC(=O)C(C(=O)/C=C/c1ccc(O)c(OC)c1)C(=O)/C=C/c1ccc(O)c(OC)c1 [Compound 1, 1,7-Bis(4-hydroxy-3-methoxyphenyl)-4-methoxycarbonylhepta-1E,6E-dien-3,5-dione]
Reduction in alveolar bone loss vs untreated groups ([1]; 100 mg/kg oral, p<0.05): ~60%
Reduction in alveolar bone loss vs untreated groups ([1]; 500 mg/kg oral): less effective
Reduction of proinflammatory cytokines and growth factors (MCP-1, TNFα, VEGF) (MCP-1, TNFα, VEGF): potent in reducing proinflammatory cytokines such as MCP-1 and TNFα and growth factors such as VEGF
Cytotoxicity Monocytes @ 18 h incubation (human monocytes [2]; 25 uM): 25 uM- 45.5%
Cytotoxicity Monocytes @ 18 h incubation (human monocytes [2]; 50 uM): 50 uM- 53%
Description of AEs (diabetic rats): Minor inflamed sclera
Incidence of Adverse Events (AEs) (diabetic rats): 1/6
Cytotoxicity Monocytes @ 5 h incubation (human monocytes [6]; 2 uM): 2 uM- 0%
Cytotoxicity Monocytes @ 5 h incubation (human monocytes [6]; 10 uM): 10 uM- 0%
Cytotoxicity Monocytes @ 5 h incubation (human monocytes [6]; 25 uM): 25 uM- 33%
Plasma MMP-9 level [7]: reduced the excessive levels of MMPs to essentially normal levels
LDH release ([8]; 6 h): 24286±930
Effect on LDH release ([8]; 24 h): less dramatic effect
IC50 against purified hMMP-8 (purified human PMN MMP-8; Table 1 experiments): equivalent to that of 1,10-O-phenanthroline
Reduction of IL-1β in gingiva vs untreated diabetic (IL-1β; higher oral dose (500 mg/kg)): 95%
Reduction of IL-1β in gingiva vs untreated diabetic (IL-1β; lower oral dose (100 mg/kg)): about 18%
Effect on severity of hyperglycemia (serum glucose) [9]: no effect on the severity of hyperglycemia
Solubility in aqueous solutions (comparative) [10]: more soluble than the insoluble natural product curcumin
Pro- and activated-forms of MMP-2 in gingiva (MMP-2 (gelatinase A)): neither diabetes nor compound 1 appeared to have a detectable effect
Plasma MMP-2 level [12]: reduced the excessive levels of MMPs to essentially normal levels
Effect on caspase-3 activity mediated by doxorubicin [13]: None of the MMP inhibitors, including compound 1, negatively modulate caspase-3 activity
Production and/or activity of MMP-9 [14]: inhibited the production and/or activity of MMP-9
Effect on blood glucose and hemoglobin A1c levels [15]: no significant effect
